Assays:
[1] = Study 2: pharmacokinetics of HPβCD-diclofenac and excipient HPβCD in subjects with renal or hepatic impairment and healthy subjects (crossover vs itraconazole); format: in vivo, human; details: for AUC(0 − t) / AUC∞ / CL / Vz / t½ / λz: mean ± SD; for Tmax: median; for maximum HPβCD plasma concentration: after administration of Dyloject
Procedure: Subjects with mild chronic hepatic impairment, as defined by Child-Pugh Classification A, Score of 5 to 6 and a bilirubin of ≦2.5 mg/dl, were recruited. Subjects with renal or hepatic impairment were included if they were between 18-75 years of age, and healthy subjects between 18 and 65 years of age.
Inclusion criteria for healthy subjects were similar to those for Study 1. Healthy subjects were required to have normal renal function, defined as CrCl>80 mL/min, and normal hepatic function. […]
Similar to Study 1, there were allowances for a greater breadth of co-morbid conditions in the renal and hepatic groups. […] Diabetic patients must have been on a stable therapeutic regimen for four weeks.
Exclusion criteria included pregnancy, uncontrolled or poorly controlled diabetes, use of dialysis, fluctuating or rapidly deteriorating hepatic function, hepatic or other cancers, organ transplantation or immunosuppression, acute infections, or asthma. Subjects were excluded for any serious cardiovascular events, such as myocardial infarction, coronary artery bypass surgery or percutaneous coronary intervention, unstable angina, stroke or congestive heart failure. Restrictions were also placed on certain disease states, such as current intestinal disorders or infections, peptic ulcers, GI bleeding or cerebral hemorrhage. Subjects who were positive for hepatitis B or hepatitis C were excluded from the healthy and renal groups, but were included in the subjects with mild chronic hepatic impairment. […] Hypersensitivity to NSAIDs or diclofenac also prompted exclusion.
Subjects with renal or hepatic impairment reported to the study site on study day 0 and remained at the site for two nights and two days. […] Subjects were discharged on study day 2 after being assessed by the investigator, and returned 7±3 days after dosing for final safety assessments. If there were no abnormal findings at discharge, the follow-up visit was completed via telephone.
Healthy subjects reported to the study site on study day 0 and remained at the site for three nights and three days. […] Blood samples were obtained as described above for renal and hepatic subjects. […] For itraconazole, one blood sample was to be drawn at each time point to assay for HPβCD concentrations. Subjects were discharged on study day 3 after being assessed by the investigator, and returned 7±3 days after receiving the last dose of study drug for safety assessments.
The LOQ for the HPβCD assay was 100 ng/ml.
Pharmacokinetic parameters were calculated using non-compartmental analysis. Only those plasma concentrations equal to or greater than the lower limit of quantitation were used in the analysis. Actual sampling times were used in all pharmacokinetic analyses.
The maximum serum concentration (Cmax) and time to Cmax (Tmax) were taken directly from the data. The elimination rate constant, λz, was calculated as the negative of the slope of the terminal log-linear segment of the serum concentration-time curve. The range of data used for each subject and treatment was determined by visual inspection of a semi-logarithmic plot of concentration vs. time. Elimination half-life (t½) was calculated according to the following equation;
where Ctf is the final concentration≧: LOQ. Total plasma clearance (CL) was calculated as Dose/AUC, and volume of distribution (Vz) was calculated as Dose/λz AUC.
Comparisons among the three subject types were done using […]. The same model was used to test for the effect of hepatic impairment on the pharmacokinetics of diclofenac and HPβCD but without additional comparisons, as there were only two groups.

[2] = cited from earlier work
[3] = Study 2, Healthy matches (to hepatic group), 37.5 mg HPβCD-diclofenac IV, plasma HPβCD
[4] = Study 2, Healthy matches (to renal groups), 37.5 mg HPβCD-diclofenac IV, plasma HPβCD
[5] = Study 2, Healthy, plasma HPβCD after 37.5 mg HPβCD-diclofenac IV
[6] = Study 2, Healthy, plasma HPβCD after 200 mg itraconazole IV
[7] = Study 2, Mild Hepatic, 37.5 mg HPβCD-diclofenac IV, plasma HPβCD
[8] = Study 2, Mild Renal, 37.5 mg HPβCD-diclofenac IV, plasma HPβCD
[9] = Study 2, Moderate renal, 37.5 mg HPβCD-diclofenac IV, plasma HPβCD
[10] = moderate renal insufficiency compared to healthy subjects
[11] = subjects with moderate renal insufficiency, 37.5 mg dose of HPβCD-diclofenac

With `CC(O)COC[C@H]1O[C@@H]2O[C@H]3[C@H](O)[C@@H](O)[C@@H](O[C@H]4[C@H](O)[C@@H](O)[C@@H](O[C@H]5[C@H](O)[C@@H](O)[C@@H](O[C@H]6[C@H](O)[C@@H](O)[C@@H](O[C@H]7[C@H](O)[C@@H](O)[C@@H](O[C@H]8[C@H](O)[C@@H](O)[C@@H](O[C@H]1[C@H](O)[C@H]2O)O[C@@H]8COCC(C)O)O[C@@H]7COCC(C)O)O[C@@H]6COCC(C)O)O[C@@H]5COCC(C)O)O[C@@H]4COCC(C)O)O[C@@H]3COCC(C)O` (stereo partly drawn) [HPβCD, hydroxypropyl-beta-cyclodextrin] the “PK in subjects with mild hepatic impairment versus matched healthy controls” value ([1]; 37.5 mg IV) was “no differences”, the “exposure to HPβCD, geometric least squares mean ratio of AUC∞, relative to 8000 mg as Sporanox” value ([1]; 333.3 mg HPβCD as HPβCD-diclofenac, healthy subjects) was 4.58% and the “AUC(0 − t)” value [1, 3] was 52,982 ± 11,267 h × ng/mL. For the same compound, the “AUC∞” value [1, 3] was 53,651 ± 11,321 h × ng/mL, the CL [1, 3] was 107 ± 21.2 mL/min and the Vz [1, 3] was 20.6 ± 2.45 L. For the same compound, the t½ [1, 3] was 2.28 ± 0.42 h, the λz [1, 3] was 0.3127 ± 0.052 h⁻¹ and the Tmax [1, 3] was 0.083 h. For the same compound, the “AUC(0 − t)” value [1, 4] was 66,449 ± 12,642 h × ng/mL, the “AUC∞” value [1, 4] was 67,316 ± 12,615 h × ng/mL and the CL [1, 4] was 85.2 ± 16.5 mL/min. The Vz [1, 4] was 23.3 ± 9.84 L, the t½ [1, 4] was 3.29 ± 1.66 h and the λz [1, 4] was 0.2510 ± 0.095 h⁻¹. For the same compound, the Tmax [1, 4] was 0.083 h, the “AUC(0 − t)” value [1, 5] was 58,994 ± 14,123 h × ng/mL and the “AUC∞” value [1, 5] was 59,709 ± 14,217 h × ng/mL. For the same compound, the CL [1, 5] was 98.0 ± 22.7 mL/min, the Vz [1, 5] was 21.8 ± 7.36 L and the t½ [1, 5] was 2.74 ± 1.35 h. The λz [1, 5] was 0.2909 ± 0.0860 h⁻¹, the Tmax [1, 5] was 0.083 h and the CL [1, 6] was 106 ± 19.0 mL/min. The Vz [1, 6] was 23.5 ± 5.65 L, the t½ [1, 6] was 2.54 ± 0.25 h and the λz [1, 6] was 0.2752 ± 0.0244 h⁻¹. The Tmax [1, 6] was 1.083 h, the “AUC(0 − t)” value [1, 7] was 55,946 ± 17,233 h × ng/mL and the “AUC∞” value [1, 7] was 56,802 ± 17,412 h × ng/mL. The CL [1, 7] was 107 ± 33.8 mL/min, the Vz [1, 7] was 20.0 ± 4.19 L and the t½ [1, 7] was 2.28 ± 0.60 h. The λz [1, 7] was 0.3226 ± 0.084 h⁻¹, the Tmax [1, 7] was 0.083 h and the “AUC(0 − t)” value [1, 8] was 127,141 ± 90,489 h × ng/mL. For the same compound, the “AUC∞” value [1, 8] was 128,349 ± 91,132 h × ng/mL, the CL [1, 8] was 59.0 ± 31.3 mL/min and the Vz [1, 8] was 13.6 ± 5.38 L. It also gave a t½ [1, 8] of 2.87 ± 0.69 h, a λz [1, 8] of 0.2549 ± 0.068 h⁻¹ and a Tmax [1, 8] of 0.083 h. For the same compound, the “AUC(0 − t)” value [1, 9] was 169,042 ± 52,722 h × ng/mL, the “AUC∞” value [1, 9] was 165,728 ± 60,386 h × ng/mL and the CL [1, 9] was 36.2 ± 10.0 mL/min. It also gave a Vz [1, 9] of 17.7 ± 1.88 L, a t½ [1, 9] of 6.04 ± 1.94 h and a λz [1, 9] of 0.1226 ± 0.033 h⁻¹. The Tmax [1, 9] was 0.083 h, the “exposure to HPβCD relative to that of itraconazole” value ([1]; after a single dose) was 1/20 and the “maximum HPβCD plasma concentration” value ([1]; normal healthy subjects) was 70 µg/mL. The “maximum HPβCD plasma concentration” value ([1]; subjects with moderate renal impairment) was 106 µg/mL, the “exposure to HPβCD relative to that of itraconazole” value ([1]; after steady state) was “⅛” and the “decrease in CL of HPβCD” value [1, 10] was 2.4 fold. The “increase in t½ of HPβCD” value [1, 10] was 1.8 fold, the “exposure to HPβCD lower than in healthy subjects administered itraconazole, based on AUC(0-T)” value [1, 11] was 7.9 fold and the “exposure to HPβCD lower than in healthy subjects administered itraconazole, based on average concentration at steady state (Cav)” value [1, 11] was 3.9 fold.
For `CNCCC(Oc1ccc(C(F)(F)F)cc1)c1ccccc1` (stereo not drawn) [Fluoxetine], the “Vd, volume of distribution” value [2] is given as 27 L/kg, the “Prot. bind., drug fraction bound to protein (fP)” value ([2]; plasma) is given as 95% and the Cmax ([2]; read-out: Cmax, maximum drug concentration in plasma, based on the drug's pharmacokinetics and administration of a normal drug dose) is given as 180 nM.
